Ki data for 2 molecules are collected here from BindingDB's records for doi:10.1016/j.bmcl.2003.11.047 (National Chung-Hsing University, 2004).

This experiment deals with Phospholipase A2 (Naja mossambica). Description: Binding affinity against phospholipase A2 of Naja mocambique mocambique.

A word on the Ki: it is a measure of affinity in units of concentration, obtained from inhibition or displacement. Low readings indicate tighter binding, high ones weaker binding. Molecule `CCCCCCCCNC(=O)Oc1cccc(OC(=O)NCCCCCCCC)c1` [Octyl-carbamic acid 3-octylcarbamoyloxy-phenyl ester] returned a Ki of 4 µM.

As for `CCCCCCCCNC(=O)Oc1ccc(OC(=O)NCCCCCCCC)cc1` [Octyl-carbamic acid 4-octylcarbamoyloxy-phenyl ester], the affinity corresponds to a Ki of 15 µM.
